Where “and” joins values, the source holds several entries; their conditions need not be identical. Identical values can stand only once. Counter-ions that a name gives are not always drawn.

For the compound `CCOC(=O)C1CCN(CCN(c2cc(OC)cc(OC)c2)c2ccc3ncc(-c4cnn(C)c4)nc3c2)CC1` [Compound 343], the melting point is 80 °C.
Compound `COc1cc(OC)cc(N(CCN2CCC(N(C)C)C2)c2ccc3ncc(-c4cnn(C)c4)nc3c2)c1` (stereo not shown) [Compound 456] registered a melting point of 143.58 °C.
Then `COc1cc(OC)cc(N(CCCN)c2ccc3ncc(-c4cn[nH]c4)nc3c2)c1` [Compound 338], with 198.91 °C; and `COc1cc(OC)cc(N(CCCN2CCC(F)(F)C2)c2ccc3ncc(-c4cnn(C)c4)nc3c2)c1` [Compound 602], with 158.84 °C; and `COc1cc(OCCO)cc(N(CC2CC2)c2ccc3ncc(-c4cnn(C)c4)nc3c2)c1` [Compound 24], with 80 °C.
The figure for `COc1cc(OC)cc(N(C/C(C)=N\O)c2ccc3ncc(-c4cnn(C)c4)nc3c2)c1` [Compound 81] is 199 °C.
Turning to `COc1cc(OC)cc(N(C[C@@H](O)CO)c2ccc3ncc(-c4cnn(C)c4)nc3c2)c1` (single isomer, unassigned) [Compound 97], the melting point was 187.39 °C and 188 °C.
Then `C=Cc1cc(OC)cc(N(CC2CC2)c2ccc3ncc(-c4cnn(C)c4)nc3c2)c1`, with 146 °C; and `COc1cc(OC)cc(N(CC(O)CN)c2ccc3ncc(-c4cnn(C)c4)nc3c2)c1` (stereo not shown) [Compound 125], with 99 °C and 99.31 °C; and `COc1cc(OC)cc(N(Cc2cc(C)no2)c2ccc3ncc(-c4cnn(CCO)c4)nc3c2)c1` [Compound 23], with 134 °C.
The figure for `CNCCN(c1cc(F)cc(OC)c1)c1ccc2ncc(-c3cnn(C)c3)nc2c1` [Compound 510] is 70 °C; for `COc1cc(OC)cc(N(CCCO)c2ccc3ncc(-c4cnn(C5CCCCO5)c4)nc3c2)c1` (stereo not shown) it is 168.25 °C; for `COc1cc(OC)cc(N(CCCNS(=O)(=O)N(C)C)c2ccc3ncc(-c4cnn(C)c4)nc3c2)c1` [Compound 316] it is 158.73 °C.
The figure for `COc1cc(OC)cc(N(Cc2cc(C)on2)c2ccc3ncc(-c4cnn(C)c4)nc3c2)c1` is 171 °C; for `COc1cc(OC)cc(N(CC2CC2)c2ccc3ncc(-c4cnn(CCNS(=O)(=O)N(C)C)c4)nc3c2)c1` it is 160.27 °C; for `COc1cc(OC)cc(N(CCN2CCN(C(C)=O)CC2)c2ccc3ncc(-c4cnn(C)c4)nc3c2)c1` [Compound 143, N-[2-(4-Acetylpiperazin-1-yl)ethyl]-N-(3,5-dimethoxyphenyl)-3-(1-methyl-1H-pyrazol-4-yl)quinoxalin-6-amine] it is 184.72 °C.
Consider `COc1cc(F)cc(N(CCNC(C)C)c2ccc3ncc(-c4cn[nH]c4)nc3c2)c1`, for which the melting point was determined as 194 °C.
Then `COc1cc(OC)cc(N(CC2CC2)c2ccc3ncc(-c4cnn(CC(=O)NCCO)c4)nc3c2)c1`, with 167.45 °C; and `[2H]C([2H])([2H])Oc1cc(OC([2H])([2H])[2H])cc(N(CC#Cc2ccncc2)c2ccc3ncc(-c4cnn(C(C)C)c4)nc3c2)c1`, with 146 °C.
Then `COc1cc(OC)cc(N(CCN2C[C@H](C)C[C@@H](C)C2)c2ccc3ncc(-c4cnn(C)c4)nc3c2)c1` (as salt: HCl) [Compound 40], with 80 °C; and `COc1cc(OC)cc(N(CC2CN(Cc3ccccc3)CCN2Cc2ccccc2)c2ccc3ncc(-c4cnn(C)c4)nc3c2)c1` (stereo not shown), with 148 °C; and `[2H]C([2H])([2H])Oc1cc(OC([2H])([2H])[2H])cc(N(c2ccc3ncc(-c4cnn(C)c4)nc3c2)C([2H])([2H])C([2H])([2H])O)c1`, with 149 °C.
The figure for `COc1cc(OCCO)cc(N(CC2CC2)c2ccc3ncc(-c4cnn(CCO)c4)nc3c2)c1` (as salt: HCl) [Compound 131, 2-[4-(7-{(Cyclopropylmethyl)[3-(2-hydroxyethoxy)-5-methoxyphenyl]amino}quinoxalin-2-yl)-1H-pyrazol-1-yl]ethanol] is 183.2 °C; for `COc1cc(OC)cc(N(CCNC(C)C)c2ccc3ncc(-c4cnn(C5CCN(C(=O)OC(C)(C)C)CC5)c4)nc3c2)c1` it is 66 °C.
`COc1cc(OC)cc(N(CCCn2cccn2)c2ccc3ncc(-c4cnn(C)c4)nc3c2)c1` [Compound 448]: the melting point was found to be 80 °C.
Compound `CNCCN(c1cc(OC)cc(OCCO)c1)c1ccc2ncc(-c3cnn(C)c3)nc2c1` had a melting point of 142 °C.
The figure for `COc1cc(OC)cc(N(Cc2ccc(Cl)s2)c2ccc3ncc(-c4cnn(CCO)c4)nc3c2)c1` [Compound 340] is 184.2 °C.
Then `COc1cc(OC)cc(N(CC#Cc2cc(C(N)=O)ccn2)c2ccc3ncc(-c4cnn(C)c4)nc3c2)c1`, with 204 °C; and `COc1cc(OC)cc(N(CC2OCCO2)c2ccc3ncc(-c4cnn(C)c4)nc3c2)c1`, with 204.29 °C; and `CNC1CCN(CCCN(c2cc(OC)cc(OC)c2)c2ccc3ncc(-c4cnn(C)c4)nc3c2)C1` (stereo not shown), with 139.15 °C.
The figure for `COc1cc(C)cc(N(CC2CC2)c2ccc3ncc(-c4cnn(C)c4)nc3c2)c1` [Compound 228] is 132 °C; for `COc1cc(OC)cc(N(C[C@H](O)CO)c2ccc3ncc(-c4cnn(C)c4)nc3c2)c1` (single isomer, unassigned) [Compound 98] it is 186.98 °C.
As for `COc1cc(OC)cc(N(CC2CCN(C(C)C)CC2)c2ccc3ncc(-c4cnn(C)c4)nc3c2)c1`, the melting point is 168 °C and 168.08 °C.
The figure for `COc1cc(OC)cc(N(CCC#N)c2ccc3ncc(-c4cnn(C)c4)nc3c2)c1` [Compound 122] is 202.94 °C; for `CNC(=O)OCCN(c1cc(OC)cc(OC)c1)c1ccc2ncc(-c3cnn(C)c3)nc2c1` it is 160 to 162 °C; for `COc1cc(OC)cc(N(CC2CCN(CC(F)(F)F)CC2)c2ccc3ncc(-c4cnn(C)c4)nc3c2)c1` it is 123 °C and 123.5 °C.
Regarding `COc1cc(OC)cc(N(CCNC(C)C)c2ccc3ncc(-c4cnn(CCS(C)(=O)=O)c4)nc3c2)c1`, the melting point was determined as 148 °C.
`COC(=O)c1ccnc(C#CCN(c2cc(OC)cc(OC)c2)c2ccc3ncc(-c4cnn(C)c4)nc3c2)n1` had a melting point of 178 °C.
In turn, `COc1cc(OC)cc(N(CCCN2CCC(F)C2)c2ccc3ncc(-c4cnn(C)c4)nc3c2)c1` (stereo not shown) returned a melting point of 125 °C.
Then `COCCn1cc(-c2cnc3ccc(N(CC4CC4)c4cc(OC)cc(OC)c4)cc3n2)cn1`, with 101.91 °C; and `COc1cc(OC)cc(N(CCO)c2ccc3ncc(-c4cnn(C)c4CN(C)C)nc3c2)c1`, with 176 °C.
Then `COc1cc(OC)cc(N(Cc2csc(C)n2)c2ccc3ncc(-c4cnn(C)c4)nc3c2)c1` [Compound 263], with 168.45 °C; and `COc1cc(OC)cc(N(CC#Cc2ncccc2OC)c2ccc3ncc(-c4cnn(C)c4)nc3c2)c1` [Compound 652, N-(3,5-Dimethoxyphenyl)-N-[3-(3-methoxypyridin-2-yl)prop-2-yn-1-yl]-3-(1-methyl-1H-pyrazol-4-yl)quinoxalin-6-amine], with 144 °C and 142 °C.
Regarding `CNC(=O)Cn1cc(-c2cnc3ccc(N(CCNC(C)C)c4cc(OC)cc(OC)c4)cc3n2)cn1` (as salt: HCl) [Compound 134, 2-(4-{7-[(3,5-Dimethoxyphenyl){2-[(1-methylethyl)amino]ethyl}amino]quinoxalin-2-yl}-1H-pyrazol-1-yl)-N-methylacetamide], the melting point came to 184 °C.
In turn, `COc1cc(OC)cc(N(CC2CC2)c2ccc3ncc(-c4cnn(CCCNCCS(C)(=O)=O)c4)nc3c2)c1` [Compound 231] came in with a melting point of 106.81 °C.
Then `COc1cc(OC)cc(N(CCCNCC(F)F)c2ccc3ncc(-c4cnn(C)c4)nc3c2)c1` [Compound 717], with 125 °C; and `COc1cc(F)cc(N(CCCO)c2ccc3ncc(-c4cnn(C)c4)nc3c2)c1` [Compound 565], with 152 °C; and `COc1cc(OC)cc(N(CCO)c2ccc3ncc(-c4cnn(CCCN)c4)nc3c2)c1` [Compound 238], with 133.66 °C.
Then `COc1cc(OC)cc(N(CC(O)C(F)(F)F)c2ccc3ncc(-c4cnn(C)c4)nc3c2)c1` (single isomer, unassigned) [Compound 148, (2R*)-3-{(3,5-Dimethoxyphenyl)[3-(1-methyl-1H-pyrazol-4-yl)quinoxalin-6-yl]amino}-1,1,1-trifluoropropan-2-ol], with 149.13 °C; and `COc1cc(OC)cc(N(CCCNCC(F)(F)F)c2ccc3ncc(-c4cnn(C)c4)nc3c2)c1`, with 123.12 °C and 126 °C.
Compound `C#CCN(c1cc(OC)cc(OC)c1)c1ccc2ncc(-c3cnn(C)c3)nc2c1` [Compound 38] registered a melting point of 168 °C.
The figure for `COc1cc(OC)cc(N(CCNCC(F)F)c2ccc3ncc(-c4cnn(C)c4)nc3c2)c1` [Compound 513] is 160.65 °C.
The figure for `COc1ccc(OC)c(N(CCO)c2ccc3ncc(-c4cnn(C)c4)nc3c2)c1` is 191.73 °C; for `COc1cc(OC)cc(N(CCCc2nccc(O)n2)c2ccc3ncc(-c4cnn(C)c4)nc3c2)c1` [Compound 663] it is 200 °C.
Then `CCOC(=O)Cn1cc(CN(c2cc(OC)cc(OC)c2)c2ccc3ncc(-c4cnn(C)c4)nc3c2)nn1`, with 88 °C.
In turn, `COc1cc(F)cc(N(CCO)c2ccc3ncc(-c4cn[nH]c4)nc3c2)c1` showed a melting point of 80 °C.
Then `[2H]C([2H])([2H])Oc1cc(OC([2H])([2H])[2H])cc(N(CCCNCC(F)(F)F)c2ccc3ncc(-c4cnn(C)c4)nc3c2)c1`, with 127 °C; and `COc1cc(OC)cc(N(CC2CC2)c2ccc3ncc(-c4cn[nH]c4)nc3c2)c1`, with 158 to 160 °C and 159 °C; and `COc1cc(OC)cc(N(CCN2CCN(C3CCN(C(C)=O)CC3)CC2)c2ccc3ncc(-c4cnn(C)c4)nc3c2)c1` [Compound 583], with 136.49 °C.
Then `COc1cc(OC)cc(N(C[C@H](O)C(F)(F)F)c2ccc3ncc(-c4cnn(CCCN)c4)nc3c2)c1` (stereo in doubt), with 154 °C.
On to `COc1cc(OC)cc(N(CCCN2CCC[C@H]2CC#N)c2ccc3ncc(-c4cnn(C)c4)nc3c2)c1` (as salt: HCl), for which the melting point stood at 135 °C.

The values above are taken from US9464071B2 (priority 2010, dated 2016).
